Assay [1] concerns Staphylococcus aureus 6538. Kind of assay: High resolution minimum inhibitory concentration (HRMIC) test, Gram-positive bacterium. The class given is cell-based. As to conditions: for Activity against Gram-positive test organism (in words): HRMIC test; for MIC: M9GY, 10^6 CFU/ml, 30° C., 24 hours, read-out: MIC (ppm) Average, Gram-positive. As to the method: (§1) The five alkylation products from Route B, as described in Table 1, were tested for their ability to inhibit the growth of a Gram-positive bacterium, Staphylococcus aureus 6538 and a Gram-negative bacterium, Pseudomonas aeruginosa 13388 in a high resolution minimum inhibitory concentration (HRMIC) test. Two of the compounds showing biological activity were also tested for activity against sulfate-reducing bacteria (SRB). HR MIC Test Method: Varying amounts of test compound dissolved in DMSO were added to […] in a 96-well microtiter plate. Ten-fold serial dilutions were performed on a Biomek 2000 Workstation to obtain a range of closely spaced concentrations of biocide as illustrated in Table 2. A cell suspension of either Pseudomonas aeruginosa 13388 or Staphylococcus aureus 6538, adjusted to provide 10^6 CFU/ml in each well, was added to each microtiter plate. Kathon® WT biocide and Hyamine® 3500 biocide (dimethyl benzyl ammonium chloride) were included in the test for comparison. The microtiter plates were incubated at 30° C. for 24 hours and were then checked for the presence or absence of microbial growth in each well. […] Each compound was evaluated in duplicate on three separate days. [table]

In assay [2] the test system is Pseudomonas aeruginosa 13388. Kind of assay: High resolution minimum inhibitory concentration (HRMIC) test, Gram-negative bacterium. The assay is classed as cell-based. As to conditions: for Activity against Gram-negative test organism (in words): HRMIC test; for MIC: M9GY, 10^6 CFU/ml, 30° C., 24 hours, read-out: MIC (ppm) Average, Gram-negative. As to the method: as §1

Usually MIC stands for the lowest concentration that inhibits growth of the organism. As for `CC(C)(C)CC(C)(C)[N+](C)(C)C.[Br-]` [TOA Br^−, N,N,N-Trimethyl t-octyl ammonium bromide], in assay [1], the “Activity against Gram-positive test organism (in words)” value is recorded as “showed no activity” and the MIC is > 1000 µg/mL. For the same compound, in assay [2], the “Activity against Gram-negative test organism (in words)” value is given as “showed no activity” and the MIC is > 1000 µg/mL.
On to `CC(C)(C)CC(C)(C)[N+](C)(C)C.[I-]` [TOA I^−, N,N,N-Trimethyl t-octylammonium iodide], for which, in assay [1], the “Activity against Gram-positive test organism (in words)” value is reported as “showed no activity” and the MIC is > 1000 µg/mL. Besides, in assay [2], the “Activity against Gram-negative test organism (in words)” value was “showed no activity” and the MIC is > 1000 µg/mL.

The values are drawn from US6727387B2, “Quaternary ammonium salts having a tertiary alkyl group” (Rohm and Haas Company, priority 2001, dated 2004).
